# From PubChem BioAssay (NCI)
#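 At the GI50, growth is halved. Definition used: TGI = concentration required for complete inhibition of growth.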
# Legend:
# Test in all cases: inhibition of tumour cell growth, NCI panel, 384-well format
# SK-MEL-28 melanoma = system: SK-MEL-28 melanoma
# K-562 leukemia = system: K-562 leukemia
# MDA-MB-468 breast = system: MDA-MB-468 breast
# M14 melanoma = system: M14 melanoma
# SF-268 CNS = system: SF-268 CNS
# HOP-62 NSCLC = system: HOP-62 NSCLC
# CAKI-1 renal = system: CAKI-1 renal
# HCT-116 colon = system: HCT-116 colon
# MOLT-4 leukemia = system: MOLT-4 leukemia
# NCI/ADR-RES ovarian = system: NCI/ADR-RES ovarian
# RPMI-8226 leukemia = system: RPMI-8226 leukemia
# SN12C renal = system: SN12C renal
# NCI-H226 lung = system: NCI-H226 lung
# T-47D breast = system: T-47D breast
# RXF 393 renal = system: RXF 393 renal
# HCT-15 colon = system: HCT-15 colon
# NCI-H522 lung = system: NCI-H522 lung
# TK-10 renal = system: TK-10 renal
# SF-539 CNS = system: SF-539 CNS
# COLO 205 colon = system: COLO 205 colon
# SW-620 colon = system: SW-620 colon
# UACC-62 melanoma = system: UACC-62 melanoma
# HCC-2998 colon = system: HCC-2998 colon
# HL-60(TB) leukemia = system: HL-60(TB) leukemia
# MDA-MB-231 breast = system: MDA-MB-231 breast
# IGROV1 ovarian = system: IGROV1 ovarian
# SK-MEL-2 melanoma = system: SK-MEL-2 melanoma
# U251 glioblastoma = system: U251 glioblastoma
# 786-0 renal = system: 786-0 renal
# NCI-H23 lung = system: NCI-H23 lung
# PC-3 prostate = system: PC-3 prostate
# A498 renal = system: A498 renal
# UACC-257 melanoma = system: UACC-257 melanoma
# OVCAR-4 ovarian = system: OVCAR-4 ovarian
# MDA-MB-435 melanoma = system: MDA-MB-435 melanoma
# OVCAR-5 ovarian = system: OVCAR-5 ovarian
# NCI-H460 NSCLC = system: NCI-H460 NSCLC
# OVCAR-3 ovarian = system: OVCAR-3 ovarian
# NCI-H322M lung = system: NCI-H322M lung
# A549 NSCLC = system: A549 NSCLC
# SR leukemia = system: SR leukemia
# HT29 colon = system: HT29 colon
# LOX IMVI melanoma = system: LOX IMVI melanoma
# HOP-92 NSCLC = system: HOP-92 NSCLC
# MCF7 breast = system: MCF7 breast
# SK-MEL-5 melanoma = system: SK-MEL-5 melanoma
# KM12 colon = system: KM12 colon
# MALME-3M melanoma = system: MALME-3M melanoma
# ACHN renal = system: ACHN renal
# SF-295 CNS = system: SF-295 CNS
# OVCAR-8 ovarian = system: OVCAR-8 ovarian
# SK-OV-3 ovarian = system: SK-OV-3 ovarian
# SNB-19 CNS = system: SNB-19 CNS
# UO-31 renal = system: UO-31 renal
# DU-145 prostate = system: DU-145 prostate
# CCRF-CEM leukemia = system: CCRF-CEM leukemia
# BT-549 breast = system: BT-549 breast
compound,measurement,setting,value
CC1(C)CCC(c2ccc(Cl)cc2)=C(CN2CCN(c3ccc(C(=O)NS(=O)(=O)c4ccc(N[C@H](CCN5CCOCC5)CSc5ccccc5)c(S(=O)(=O)C(F)(F)F)c4)cc3)CC2)C1,GI50,SK-MEL-28 melanoma,1930 nM
same,TGI,SK-MEL-28 melanoma,3390 nM
same,GI50,K-562 leukemia,1940 nM
same,TGI,K-562 leukemia,3350 nM
same,GI50,MDA-MB-468 breast,1590 nM
same,TGI,MDA-MB-468 breast,3080 nM
same,GI50,M14 melanoma,1830 nM
same,TGI,M14 melanoma,3240 nM
same,GI50,SF-268 CNS,1880 nM
same,TGI,SF-268 CNS,3360 nM
same,GI50,HOP-62 NSCLC,2030 nM
same,TGI,HOP-62 NSCLC,3490 nM
same,GI50,CAKI-1 renal,2020 nM
same,TGI,CAKI-1 renal,3460 nM
same,GI50,HCT-116 colon,1600 nM
same,TGI,HCT-116 colon,2990 nM
same,GI50,MOLT-4 leukemia,22.1 nM
same,TGI,MOLT-4 leukemia,64 nM
same,GI50,NCI/ADR-RES ovarian,2800 nM
same,TGI,NCI/ADR-RES ovarian,7690 nM
same,GI50,RPMI-8226 leukemia,82.1 nM
same,TGI,RPMI-8226 leukemia,207 nM
same,GI50,SN12C renal,2130 nM
same,TGI,SN12C renal,3590 nM
same,GI50,NCI-H226 lung,1100 nM
same,TGI,NCI-H226 lung,2310 nM
same,GI50,T-47D breast,1870 nM
same,TGI,T-47D breast,3520 nM
same,GI50,RXF 393 renal,17.4 nM
same,TGI,RXF 393 renal,325 nM
same,GI50,HCT-15 colon,1750 nM
same,TGI,HCT-15 colon,3180 nM
same,GI50,NCI-H522 lung,1850 nM
same,TGI,NCI-H522 lung,3650 nM
same,GI50,TK-10 renal,1660 nM
same,TGI,TK-10 renal,3050 nM
same,GI50,SF-539 CNS,1720 nM
same,TGI,SF-539 CNS,3110 nM
same,GI50,COLO 205 colon,1250 nM
same,TGI,COLO 205 colon,2510 nM
same,GI50,SW-620 colon,940 nM
same,TGI,SW-620 colon,2120 nM
same,GI50,UACC-62 melanoma,1800 nM
same,TGI,UACC-62 melanoma,3190 nM
same,GI50,HCC-2998 colon,150 nM
same,TGI,HCC-2998 colon,765 nM
same,GI50,HL-60(TB) leukemia,195 nM
same,TGI,HL-60(TB) leukemia,893 nM
same,GI50,MDA-MB-231 breast,316 nM
same,TGI,MDA-MB-231 breast,1170 nM
same,GI50,IGROV1 ovarian,1560 nM
same,TGI,IGROV1 ovarian,2990 nM
same,GI50,SK-MEL-2 melanoma,1230 nM
same,TGI,SK-MEL-2 melanoma,2480 nM
same,GI50,U251 glioblastoma,1910 nM
same,TGI,U251 glioblastoma,3390 nM
same,GI50,786-0 renal,1620 nM
same,TGI,786-0 renal,3030 nM
same,GI50,NCI-H23 lung,1730 nM
same,TGI,NCI-H23 lung,3130 nM
same,GI50,PC-3 prostate,1740 nM
same,TGI,PC-3 prostate,3120 nM
same,GI50,A498 renal,1160 nM
same,TGI,A498 renal,2390 nM
same,GI50,UACC-257 melanoma,1590 nM
same,TGI,UACC-257 melanoma,3010 nM
same,GI50,OVCAR-4 ovarian,1270 nM
same,TGI,OVCAR-4 ovarian,2790 nM
same,GI50,MDA-MB-435 melanoma,1940 nM
same,TGI,MDA-MB-435 melanoma,3390 nM
same,GI50,OVCAR-5 ovarian,1460 nM
same,TGI,OVCAR-5 ovarian,2840 nM
same,GI50,NCI-H460 NSCLC,1840 nM
same,TGI,NCI-H460 NSCLC,3280 nM
same,GI50,OVCAR-3 ovarian,1560 nM
same,TGI,OVCAR-3 ovarian,2900 nM
same,GI50,NCI-H322M lung,1880 nM
same,TGI,NCI-H322M lung,3670 nM
same,GI50,A549 NSCLC,1630 nM
same,TGI,A549 NSCLC,3120 nM
same,GI50,SR leukemia,365 nM
same,TGI,SR leukemia,2040 nM
same,GI50,HT29 colon,1840 nM
same,TGI,HT29 colon,3270 nM
same,GI50,LOX IMVI melanoma,1950 nM
same,TGI,LOX IMVI melanoma,3370 nM
same,GI50,HOP-92 NSCLC,135 nM
same,TGI,HOP-92 NSCLC,771 nM
same,GI50,MCF7 breast,1880 nM
same,TGI,MCF7 breast,4580 nM
same,GI50,SK-MEL-5 melanoma,1660 nM
same,TGI,SK-MEL-5 melanoma,3020 nM
same,GI50,KM12 colon,1760 nM
same,TGI,KM12 colon,3230 nM
same,GI50,MALME-3M melanoma,1870 nM
same,TGI,MALME-3M melanoma,3270 nM
same,GI50,ACHN renal,1800 nM
same,TGI,ACHN renal,3200 nM
same,GI50,SF-295 CNS,1750 nM
same,TGI,SF-295 CNS,3140 nM
same,GI50,OVCAR-8 ovarian,1750 nM
same,TGI,OVCAR-8 ovarian,3140 nM
same,GI50,SK-OV-3 ovarian,1960 nM
same,TGI,SK-OV-3 ovarian,3480 nM
same,GI50,SNB-19 CNS,2170 nM
same,TGI,SNB-19 CNS,4020 nM
same,GI50,UO-31 renal,1370 nM
same,TGI,UO-31 renal,2670 nM
same,GI50,DU-145 prostate,2300 nM
same,TGI,DU-145 prostate,4790 nM
same,GI50,CCRF-CEM leukemia,69.8 nM
same,TGI,CCRF-CEM leukemia,198 nM
same,GI50,BT-549 breast,1810 nM
same,TGI,BT-549 breast,3230 nM
